From US11541023B2, “Compounds and compositions for the treatment of neurodegenerative and inflammatory diseases” (SORBONNE UNIVERSITE, priority 2018, dated 2023)
Where a name gives a salt, the structure may show the parent alone.

Tests used:
[1] = tested on: CG4 cell line (rat oligodendrocyte precursor cells), GFP/mCherry; experiment: Cytotoxicity on GFP/mCherry oligodendrocyte line (Hoechst staining); assay type: cell-based; conditions: 72 h
Procedure: FIGS. 2 and 3: Evaluation of the cytotoxicity of the compounds 2 and 3 on the GFP/-mCherry oligodendrocyte line. The cell survival was evaluated by measuring the fluorescence intensity of the Hoechst staining compared with the basal control (TB). Each concentration was tested in quadruplicate. Statistics: Mann-Whitney test (p value=0.019). […] Legend—TB: basal control, T+: positive control (9-cis-retinoic acid). The line used is a CG4 cell line, said cell line being rat oligodendrocyte precursor cells (OPCs), and doubly transduced with the GFP gene under the control of the CMV promoter and the mCherry marker gene under the control of a promoter specific for differentiated and mature oligodendrocytes. The mCherry marker is expressed only at the differentiated oligodendrocyte stage and thus makes it possible to test compounds capable of inducing OPC differentiation. The cells were also stained with Hoechst in order to evaluate their viability. The cells are cultured in the proliferation medium described by Louis et al. (Louis et al., J Neurosci Res. 1992 January; 31(1):193-204) during their seeding, and then transferred into a differentiation medium (DMEM/F12, B27, N1, biotin, laminin). The cells are treated with various concentrations of inhibitor for 72 h in 96-well plates, then screened by means of an automated inverted microscope. The experimental controls used are a basal control containing only the differentiation medium and a positive control, 9-cis-retinoic acid, which is known for its effect in inducing OPC differentiation (Huang et al., Nature Neuroscience 14, 45-53 (2011)). Firstly, the cytotoxicity of the compounds is evaluated by virtue of the comparison of the intensity of the Hoechst staining for each experimental condition with respect to the basal control.

plasmin = plasmin (Homo sapiens (Human), UniProt P00747); experiment: Plasmin enzymatic inhibition test (Boc-QAR-AMC / PAR4 FRET substrate); conditions: for inhibition at 10 µM: read-out: % Inhibition at 10 μM
KLK1 = KLK1 (Homo sapiens (Human), UniProt P06870); experiment: KLK1 enzymatic inhibition test (Boc-PFR-AMC); assay type: biochemical; conditions: for inhibition at 10 µM: KLK1 1.6 nM, Boc-PFR-AMC 100 μM, 15 min at 37° C., compound 10 μM; for IC50: KLK1, Boc-PFR-AMC, ni = non-inhibitor
Procedure: The molecules were tested in order to evaluate their possible inhibitory effect on the enzymatic activity of KLK1. […] The results are presented in Table 4 below; all the inhibitors are reversible.

KLK6 = KLK6 (Homo sapiens (Human), UniProt Q92876); experiment: KLK6 enzymatic inhibition test (fluorogenic/FRET peptide substrates); conditions: for inhibition at 10 µM: read-out: % Inhibition at 10 μM
[2] = tested on: primary culture of murine cortical neurons; experiment: Neurocytotoxicity, XTT cell survival test; assay type: cell-based; conditions: for % cell survival: 48 h
Procedure: FIG. 1: Evaluation of the neurocytotoxicity of the compounds 1 (comparative), 2 and 4 (according to the invention). The percentage cell survival was determined by measuring the absorbance at 485 nm for each concentration compared with the controls treated only with complete medium (positive control) or 20% DMSO (negative control). Each concentration was tested in quadruplicate. The neurons were taken from the stage E16 embryos of Swiss females. The cells are seeded at a density of 50 000 cells/well in precoated sterile transparent 96-well plates. The cells are cultured for 48 h in DMEM medium supplemented with 10% fetal calf serum (FCS), penicillin, streptomycin, N2 and B27, at 37° C. under a humid atmosphere with 5% CO2. The cells are then placed in the presence of the compounds described above (10, 25 or 50 μM) or of the DMSO control, and then incubated for 48 h. The medium is then replaced with 100 μl of XTT (0.3 mg·ml^−1) in order to carry out the cell viability test. […] The activity of the mitochondria is determined by measuring the absorbance at 485 nm. The percentage cell survival is calculated by the ratio of the absorbance in the presence of the inhibitor relative to the control condition (DMSO). The molecule is considered to be cytotoxic when the percentage cell survival is less than 80%.

[3] = plasmin, FRET substrate PAR4, ni = non-inhibitor

plasmin, sequence (P00747 581-810 limits assumed): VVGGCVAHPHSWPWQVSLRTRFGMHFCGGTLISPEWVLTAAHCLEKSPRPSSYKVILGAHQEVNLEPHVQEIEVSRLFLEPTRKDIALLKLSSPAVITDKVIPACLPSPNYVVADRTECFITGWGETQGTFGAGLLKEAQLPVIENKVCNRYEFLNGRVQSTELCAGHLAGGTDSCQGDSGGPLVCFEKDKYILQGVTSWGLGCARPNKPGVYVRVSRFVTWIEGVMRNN
plasmin, sequence (P00747 97-580 partner limits assumed): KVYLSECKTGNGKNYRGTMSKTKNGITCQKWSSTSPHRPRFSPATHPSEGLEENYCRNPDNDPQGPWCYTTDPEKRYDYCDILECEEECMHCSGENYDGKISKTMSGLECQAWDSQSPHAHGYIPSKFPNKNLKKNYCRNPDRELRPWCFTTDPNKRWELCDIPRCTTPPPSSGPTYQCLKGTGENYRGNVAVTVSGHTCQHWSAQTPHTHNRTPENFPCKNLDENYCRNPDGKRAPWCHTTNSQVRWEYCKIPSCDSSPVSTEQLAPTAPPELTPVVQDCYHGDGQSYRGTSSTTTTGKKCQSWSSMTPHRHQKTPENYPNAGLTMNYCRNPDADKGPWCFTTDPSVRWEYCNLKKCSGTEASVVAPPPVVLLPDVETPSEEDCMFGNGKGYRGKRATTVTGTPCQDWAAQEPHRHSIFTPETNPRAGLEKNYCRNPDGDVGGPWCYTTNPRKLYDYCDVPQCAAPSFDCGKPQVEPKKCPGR
KLK1, sequence (P06870 25-262): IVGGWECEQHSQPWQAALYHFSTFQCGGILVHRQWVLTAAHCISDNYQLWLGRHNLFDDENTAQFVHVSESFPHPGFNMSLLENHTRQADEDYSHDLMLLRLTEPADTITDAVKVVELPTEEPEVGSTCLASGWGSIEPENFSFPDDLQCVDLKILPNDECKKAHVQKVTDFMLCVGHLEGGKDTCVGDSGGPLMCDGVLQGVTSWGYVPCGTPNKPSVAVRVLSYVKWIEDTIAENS

| Structure (SMILES) | IC50 (plasmin; [3]) | inhibition at 10 µM (plasmin) [%] | inhibition at 10 µM (KLK1) [%] | IC50 (KLK1) | inhibition at 10 µM (KLK6) [%] | % cell survival ([2]; 10 μM) [%] | % cell survival ([2]; 25 μM) [%] | further results |
| --- | --- | --- | --- | --- | --- | --- | --- | --- |
| CC(C)(C)c1ccc(O)c(C(=O)Nc2ccc(CN)cc2)c1.Cl [Compound 1, N-(4-(Aminomethyl)phenyl)-5-tert-butyl-2-hydroxybenzamide hydrochloride, reference compound] | ni | 39.3 | 32.8 | ni | 51 | > 80 |  | Concentrations at which toxicity is exhibited ([1]; oligodendrocyte line): above 10 μM; Inhibition type (plasmin; plasmin, Boc-QAR-AMC, competitive/noncompetitive by Dixon method): Competitive; IC50 (plasmin; plasmin, substrate Boc-QAR-AMC): 17.1 µM; Ki (plasmin; plasmin, substrate Boc-QAR-AMC, Dixon method): 14.4 µM; Inhibition type (reversibility) (plasmin; plasmin, dilution method): reversible; Inhibition type (KLK6; KLK6, Boc-QAR-AMC, competitive/noncompetitive by Dixon method): Competitive; IC50 (KLK6; KLK6, FRET substrate MBP3): 39.8 µM; IC50 (KLK6; KLK6, FRET substrate PAR2): 21.7 µM; IC50 (KLK6; KLK6, substrate Boc-QAR-AMC): 9.06 µM; Ki (KLK6; KLK6, substrate Boc-QAR-AMC, Dixon method): 4.44 µM; Inhibition type (reversibility) (KLK6; KLK6, dilution method): reversible; Neurocytotoxicity ([2]; 10, 25 and 50 μM): dose-dependent effect |
| Cl.NCc1ccc(NC(=O)c2ccc3ccccc3c2O)cc1 [Compound 2, N-(4-(Aminomethyl)phenyl)-1-hydroxy-2-naphthamide hydrochloride] |  | 97.4 | 47.7 | ni | 77.2 | > 80 | > 90 | Cytotoxicity (Hoechst staining relative to basal control) ([1]; all concentrations tested): not cytotoxic; % cell survival ([2]; second statement printed as 25 μM (presumably 50 μM)): > 90% |
| NCc1ccc(NC(=O)c2cc3ccccc3cc2O)cc1 [Compound 3, N-(4-(Aminomethyl)phenyl)-3-hydroxy-2-naphthamide hydrochloride] |  | 81 | 77 |  |  |  |  |  |
| Cc1ccc(C(=O)Nc2ccc(CN)cc2)c(O)c1.Cl [Compound 4, N-(4-(Aminomethyl)phenyl)-4-methyl-2-hydroxybenzamide hydrochloride] | ni | 54.3 | 61.7 |  | 68.8 | > 80 | > 90 | Cytotoxicity ([1]; between 2 and 12 μM): does not exhibit any toxicity |
| COc1ccc2c(O)c(C(=O)Nc3ccc(CN)cc3)ccc2c1 [Compound 5, N-(4-(Aminomethyl)phenyl)-6-methoxy-1-hydroxy-2-naphthamide hydrochloride] |  | 100 | 46.5 |  |  |  |  |  |
| CC(C)c1ccc(C(=O)Nc2ccc(CN)cc2)c(O)c1 [Compound 6, N-(4-(Aminomethyl)phenyl)-4-isopropyl-2-hydroxybenzamide hydrochloride] |  | 70.2 | 57.7 |  | 84.7 |  |  |  |
